Measurements from PubChem BioAssay (NCI).
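Exposure lasted 48 hours, with cells grown in 96-well plates and compounds tested at five concentrations. TGI: total growth inhibition.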

What was measured:
Assay in all cases: DTP human tumour cell line panel, 48 h
[1] = tested on: DLD-1 colon
[2] = tested on: M19-MEL melanoma
[3] = tested on: ACHN renal
[4] = tested on: COLO 205 colon
[5] = tested on: SR leukemia
[6] = tested on: A498 renal
[7] = tested on: OVCAR-4 ovarian
[8] = tested on: KM12 colon
[9] = tested on: RPMI-8226 leukemia
[10] = tested on: UACC-62 melanoma
[11] = tested on: NCI-H23 lung
[12] = tested on: NCI-H460 lung
[13] = tested on: SK-OV-3 ovarian
[14] = tested on: SNB-78 CNS
[15] = tested on: UACC-257 melanoma
[16] = tested on: EKVX NSCLC
[17] = tested on: UO-31 renal
[18] = tested on: IGROV1 ovarian
[19] = tested on: XF 498 CNS
[20] = tested on: K-562 leukemia
[21] = tested on: LXFL 529 NSCLC
[22] = tested on: DMS 114 small cell lung
[23] = tested on: SF-268 CNS
[24] = tested on: SN12C renal
[25] = tested on: M14 melanoma
[26] = tested on: SF-295 CNS
[27] = tested on: CAKI-1 renal
[28] = tested on: SK-MEL-5 melanoma
[29] = tested on: SNB-75 CNS
[30] = tested on: KM20L2 colon
[31] = tested on: SNB-19 CNS
[32] = tested on: LOX IMVI melanoma
[33] = tested on: TK-10 renal
[34] = tested on: HOP-62 NSCLC
[35] = tested on: MOLT-4 leukemia
[36] = tested on: U251 CNS
[37] = tested on: SK-MEL-2 melanoma
[38] = tested on: HCC-2998 colon
[39] = tested on: CCRF-CEM leukemia
[40] = tested on: SK-MEL-28 melanoma
[41] = tested on: HCT-116 colon
[42] = tested on: HL-60(TB) leukemia
[43] = tested on: HCT-15 colon
[44] = tested on: OVCAR-8 ovarian
[45] = tested on: DMS 273 small cell lung
[46] = tested on: SF-539 CNS
[47] = tested on: HOP-92 NSCLC
[48] = tested on: RXF 393 renal
[49] = tested on: A549 NSCLC
[50] = tested on: 786-0 renal
[51] = tested on: SW-620 colon
[52] = tested on: OVCAR-3 ovarian
[53] = tested on: MDA-MB-231 breast
[54] = tested on: NCI-H226 lung
[55] = tested on: PC-3 prostate
[56] = tested on: MDA-N
[57] = tested on: HT29 colon
[58] = tested on: T-47D breast
[59] = tested on: DU-145 prostate
[60] = tested on: MDA-MB-435
[61] = tested on: NCI-H522 lung
[62] = tested on: MALME-3M melanoma
[63] = tested on: HS 578T breast
[64] = tested on: NCI/ADR-RES ovarian
[65] = tested on: OVCAR-5 ovarian
[66] = tested on: BT-549 breast
[67] = tested on: MCF7 breast

Measured: TGI

COC(=O)/C=C1/CCC(C(=O)OC)N1 (stereo unspecified)
not listed: [53] | [54] | [55] | [56] | [57] | [58] | [59] | [60] | [61] | [62] | [63] | [64] | [65] | [66] | [67]
> 100 µM: all other assays above

CN(CCn1cnc2c1c(=O)n(C)c(=O)n2C)C1CCCCC1
not listed: [1] | [2] | [14] | [19] | [21] | [22] | [30] | [45]
> 100 µM: all other assays above
